Source: publication PMC3639963, “A New Class of Small Molecule Inhibitor of BMP Signaling” (PLoS ONE, 2013)

What was measured:
Assay in all cases: Nanosyn kinase profiling
Format in all cases: biochemical
Conditions in all cases: read-out: Percentage inhibition; for inhibition at 0.1 µM: 0.1 µM inhibitor; for inhibition at 1 µM: 1 µM inhibitor
JNK2 = target: T1, JNK2 (Homo sapiens, UniProt P45984)
T1 construct: purchased Nanosyn (enzymatic panel); SGC in-house recombinant human kinases (DSF panel); Invitrogen (ALK1-6)
T1 sequence (P45984 whole entry): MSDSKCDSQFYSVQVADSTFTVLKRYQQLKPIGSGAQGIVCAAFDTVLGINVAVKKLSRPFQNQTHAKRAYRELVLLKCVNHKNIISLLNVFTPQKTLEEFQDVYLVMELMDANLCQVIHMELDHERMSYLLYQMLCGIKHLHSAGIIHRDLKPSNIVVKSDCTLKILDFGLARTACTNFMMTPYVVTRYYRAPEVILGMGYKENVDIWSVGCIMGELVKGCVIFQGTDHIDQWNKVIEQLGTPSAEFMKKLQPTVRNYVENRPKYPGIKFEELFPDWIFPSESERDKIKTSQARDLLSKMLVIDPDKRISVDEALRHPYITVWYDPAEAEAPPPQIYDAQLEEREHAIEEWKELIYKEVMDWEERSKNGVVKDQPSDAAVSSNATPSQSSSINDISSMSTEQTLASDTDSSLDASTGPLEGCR
How it was run: (§1)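 Percent inhibition of each kinase was measured with the inhibitor at 0.1 µM and at 1 µM, as part of a 200-kinase human selectivity panel.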

PDK1 = target: T2, PDK1 (Homo sapiens, UniProt O15530)
T2 construct: purchased Nanosyn (enzymatic panel); SGC in-house recombinant human kinases (DSF panel); Invitrogen (ALK1-6)
T2 sequence (O15530 1-556): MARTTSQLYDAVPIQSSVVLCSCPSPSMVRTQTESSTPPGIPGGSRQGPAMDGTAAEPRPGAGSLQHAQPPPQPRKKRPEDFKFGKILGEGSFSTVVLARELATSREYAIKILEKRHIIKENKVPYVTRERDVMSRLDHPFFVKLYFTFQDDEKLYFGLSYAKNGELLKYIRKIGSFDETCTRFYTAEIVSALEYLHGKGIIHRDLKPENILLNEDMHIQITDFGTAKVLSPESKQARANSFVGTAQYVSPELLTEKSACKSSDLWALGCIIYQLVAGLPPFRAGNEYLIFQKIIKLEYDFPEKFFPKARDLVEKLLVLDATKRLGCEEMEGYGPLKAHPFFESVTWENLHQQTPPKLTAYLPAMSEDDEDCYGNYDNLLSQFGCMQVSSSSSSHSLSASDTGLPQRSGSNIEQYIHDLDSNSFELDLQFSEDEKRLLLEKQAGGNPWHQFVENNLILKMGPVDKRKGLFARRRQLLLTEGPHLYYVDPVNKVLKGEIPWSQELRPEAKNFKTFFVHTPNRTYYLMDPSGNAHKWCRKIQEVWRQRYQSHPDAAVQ
How it was run: as §1

RET = target: T3, RET (Homo sapiens, UniProt P07949)
T3 construct: purchased Nanosyn (enzymatic panel); SGC in-house recombinant human kinases (DSF panel); Invitrogen (ALK1-6)
T3 sequence (P07949 29-1114): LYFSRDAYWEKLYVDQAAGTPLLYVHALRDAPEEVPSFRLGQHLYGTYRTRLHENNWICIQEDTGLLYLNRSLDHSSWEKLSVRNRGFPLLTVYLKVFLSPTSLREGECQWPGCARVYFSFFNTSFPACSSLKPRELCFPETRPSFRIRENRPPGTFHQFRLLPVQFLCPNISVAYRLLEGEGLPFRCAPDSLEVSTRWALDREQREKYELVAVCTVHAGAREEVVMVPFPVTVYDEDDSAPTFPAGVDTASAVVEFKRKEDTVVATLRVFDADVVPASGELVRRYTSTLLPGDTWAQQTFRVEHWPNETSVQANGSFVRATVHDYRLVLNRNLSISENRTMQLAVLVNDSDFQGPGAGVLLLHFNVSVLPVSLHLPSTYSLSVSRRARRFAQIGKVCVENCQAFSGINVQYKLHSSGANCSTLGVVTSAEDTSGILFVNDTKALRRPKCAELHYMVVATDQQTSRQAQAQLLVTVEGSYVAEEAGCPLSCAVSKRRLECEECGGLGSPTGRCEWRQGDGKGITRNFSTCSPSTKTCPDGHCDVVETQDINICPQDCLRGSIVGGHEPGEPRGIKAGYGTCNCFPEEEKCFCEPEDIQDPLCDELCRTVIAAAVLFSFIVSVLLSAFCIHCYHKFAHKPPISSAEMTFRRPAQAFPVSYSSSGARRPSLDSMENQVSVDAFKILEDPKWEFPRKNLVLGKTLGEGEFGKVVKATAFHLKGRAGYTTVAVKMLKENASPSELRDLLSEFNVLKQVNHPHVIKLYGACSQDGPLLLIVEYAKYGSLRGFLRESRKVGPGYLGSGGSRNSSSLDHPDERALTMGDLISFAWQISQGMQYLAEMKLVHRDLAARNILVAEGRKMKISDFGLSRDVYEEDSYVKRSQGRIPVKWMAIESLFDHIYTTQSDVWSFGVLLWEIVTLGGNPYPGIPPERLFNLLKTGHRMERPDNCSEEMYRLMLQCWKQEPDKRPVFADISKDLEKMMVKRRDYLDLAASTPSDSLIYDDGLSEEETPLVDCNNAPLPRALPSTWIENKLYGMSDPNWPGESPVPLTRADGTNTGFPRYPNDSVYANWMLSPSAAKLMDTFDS
How it was run: as §1

SGK2 = target: T4, SGK2 (Homo sapiens, UniProt Q9HBY8)
T4 construct: purchased Nanosyn (enzymatic panel); SGC in-house recombinant human kinases (DSF panel); Invitrogen (ALK1-6)
T4 sequence (Q9HBY8 1-367): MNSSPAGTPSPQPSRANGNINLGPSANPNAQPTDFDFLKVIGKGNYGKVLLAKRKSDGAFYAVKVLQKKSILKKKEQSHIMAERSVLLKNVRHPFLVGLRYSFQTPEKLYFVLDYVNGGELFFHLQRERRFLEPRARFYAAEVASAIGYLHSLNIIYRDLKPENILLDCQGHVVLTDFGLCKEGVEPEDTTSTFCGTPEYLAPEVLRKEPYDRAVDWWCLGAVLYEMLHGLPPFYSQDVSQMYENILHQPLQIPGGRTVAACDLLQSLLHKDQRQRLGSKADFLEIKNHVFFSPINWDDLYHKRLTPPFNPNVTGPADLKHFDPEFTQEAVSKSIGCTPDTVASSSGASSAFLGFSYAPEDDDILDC
How it was run: as §1

SPHK2 = target: T5, SPHK2 (Homo sapiens, UniProt Q9NRA0)
T5 construct: purchased Nanosyn (enzymatic panel); SGC in-house recombinant human kinases (DSF panel); Invitrogen (ALK1-6)
T5 sequence (Q9NRA0 1-654): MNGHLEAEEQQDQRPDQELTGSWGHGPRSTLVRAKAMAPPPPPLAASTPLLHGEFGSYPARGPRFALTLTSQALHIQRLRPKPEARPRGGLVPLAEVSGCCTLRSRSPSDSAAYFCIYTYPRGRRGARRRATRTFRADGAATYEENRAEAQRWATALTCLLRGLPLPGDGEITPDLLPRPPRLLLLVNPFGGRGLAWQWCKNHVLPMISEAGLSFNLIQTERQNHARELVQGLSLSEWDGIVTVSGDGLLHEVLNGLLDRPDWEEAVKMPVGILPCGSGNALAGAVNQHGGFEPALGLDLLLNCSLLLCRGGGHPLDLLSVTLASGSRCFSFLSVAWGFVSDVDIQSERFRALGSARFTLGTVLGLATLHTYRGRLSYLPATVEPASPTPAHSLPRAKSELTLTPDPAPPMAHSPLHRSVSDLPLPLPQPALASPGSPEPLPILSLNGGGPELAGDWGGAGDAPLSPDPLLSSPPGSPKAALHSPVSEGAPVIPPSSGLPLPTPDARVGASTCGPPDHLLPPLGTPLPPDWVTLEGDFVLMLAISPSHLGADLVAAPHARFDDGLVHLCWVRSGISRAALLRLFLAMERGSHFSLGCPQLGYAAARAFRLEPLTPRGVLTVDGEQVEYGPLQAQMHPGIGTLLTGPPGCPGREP
How it was run: as §1

TSSK2 = target: T6, TSSK2 (Homo sapiens, UniProt Q96PF2)
T6 construct: purchased Nanosyn (enzymatic panel); SGC in-house recombinant human kinases (DSF panel); Invitrogen (ALK1-6)
T6 sequence (Q96PF2 1-358): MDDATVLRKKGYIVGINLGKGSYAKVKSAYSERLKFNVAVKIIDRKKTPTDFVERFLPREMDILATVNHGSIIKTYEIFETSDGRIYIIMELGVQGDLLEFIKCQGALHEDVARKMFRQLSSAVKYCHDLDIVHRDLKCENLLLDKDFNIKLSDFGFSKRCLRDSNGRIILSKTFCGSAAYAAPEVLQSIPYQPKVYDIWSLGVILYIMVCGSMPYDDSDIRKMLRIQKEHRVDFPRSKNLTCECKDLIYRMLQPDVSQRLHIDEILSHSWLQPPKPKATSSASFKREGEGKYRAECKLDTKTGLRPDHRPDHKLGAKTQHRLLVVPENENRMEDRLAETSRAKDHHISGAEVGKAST
How it was run: as §1

TXK = target: T7, TXK (Homo sapiens, UniProt P42681)
T7 construct: purchased Nanosyn (enzymatic panel); SGC in-house recombinant human kinases (DSF panel); Invitrogen (ALK1-6)
T7 sequence (P42681 1-527): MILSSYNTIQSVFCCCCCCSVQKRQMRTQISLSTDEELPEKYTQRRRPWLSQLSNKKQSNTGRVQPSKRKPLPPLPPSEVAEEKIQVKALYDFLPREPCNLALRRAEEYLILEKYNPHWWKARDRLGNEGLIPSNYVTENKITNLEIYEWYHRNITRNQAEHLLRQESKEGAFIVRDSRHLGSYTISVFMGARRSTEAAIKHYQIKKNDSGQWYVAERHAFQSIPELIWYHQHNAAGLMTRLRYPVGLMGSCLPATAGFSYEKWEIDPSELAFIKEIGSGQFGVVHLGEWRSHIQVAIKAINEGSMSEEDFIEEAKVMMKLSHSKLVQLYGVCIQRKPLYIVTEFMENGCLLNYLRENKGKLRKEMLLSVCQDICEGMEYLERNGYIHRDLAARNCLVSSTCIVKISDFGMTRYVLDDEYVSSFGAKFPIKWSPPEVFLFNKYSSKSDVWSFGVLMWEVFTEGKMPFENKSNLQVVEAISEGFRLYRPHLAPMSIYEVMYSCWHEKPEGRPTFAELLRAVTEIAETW
How it was run: as §1

`COc1cc(-c2cc(-c3cccc(O)c3)cnc2N)cc(OC)c1OC` [K02288, 3-[6-amino-5-(3,4,5-trimethoxy-phenyl)-pyridin-3-yl]-phenol] was tested. Which inhibition at 0.1 µM (JNK2) did it give?
The inhibition at 0.1 µM was 0.9%.

And the inhibition at 1 µM (JNK2)?
Its inhibition at 1 µM is 0%.

And the inhibition at 0.1 µM (PDK1)?
Its inhibition at 0.1 µM is 0%.

And the inhibition at 1 µM (PDK1)?
Its inhibition at 1 µM is 0.5%.

And the inhibition at 0.1 µM (RET)?
Its inhibition at 0.1 µM is 2.1%.

What about the inhibition at 1 µM (RET) of the same compound?
Its inhibition at 1 µM is 3.9%.

And the inhibition at 0.1 µM (SGK2)?
Its inhibition at 0.1 µM is 2.7%.

What about the inhibition at 1 µM (SGK2) of the same compound?
Its inhibition at 1 µM is 1.3%.

And the inhibition at 0.1 µM (SPHK2)?
Its inhibition at 0.1 µM is -2%.

What about the inhibition at 1 µM (SPHK2) of the same compound?
The inhibition at 1 µM was 4.4%.

And the inhibition at 0.1 µM (TSSK2)?
Its inhibition at 0.1 µM is -1%.

What about the inhibition at 1 µM (TSSK2) of the same compound?
The inhibition at 1 µM was -3%.

What about the inhibition at 0.1 µM (TXK) of the same compound?
Its inhibition at 0.1 µM is 2.8%.

What about the inhibition at 1 µM (TXK) of the same compound?
The inhibition at 1 µM was 36%.

With `c1ccc2c(-c3cnn4cc(-c5ccc(N6CCNCC6)cc5)cnc34)ccnc2c1` [LDN-193189] as the compound, how does the inhibition at 0.1 µM (JNK2) read?
The inhibition at 0.1 µM was 3.9%.

What about the inhibition at 1 µM (JNK2) of the same compound?
Its inhibition at 1 µM is 1.3%.

And the inhibition at 0.1 µM (PDK1)?
The inhibition at 0.1 µM was 1.1%.

And the inhibition at 1 µM (PDK1)?
Its inhibition at 1 µM is 1.9%.

And the inhibition at 0.1 µM (RET)?
The inhibition at 0.1 µM was 4%.

And the inhibition at 1 µM (RET)?
Its inhibition at 1 µM is 16%.

And the inhibition at 0.1 µM (SGK2)?
Its inhibition at 0.1 µM is 2.3%.

What about the inhibition at 1 µM (SGK2) of the same compound?
Its inhibition at 1 µM is 0.2%.

And the inhibition at 0.1 µM (SPHK2)?
The inhibition at 0.1 µM was -1%.

And the inhibition at 1 µM (SPHK2)?
Its inhibition at 1 µM is -3%.

What about the inhibition at 0.1 µM (TSSK2) of the same compound?
The inhibition at 0.1 µM was 0%.

And the inhibition at 1 µM (TSSK2)?
Its inhibition at 1 µM is 0.5%.

And the inhibition at 0.1 µM (TXK)?
Its inhibition at 0.1 µM is 4.1%.

And the inhibition at 1 µM (TXK)?
The inhibition at 1 µM was 16%.
